{"source": "PubChem BioAssay (NCI)", "test_in_all_cases": "inhibition of tumour cell growth, NCI panel, 48 h", "key": {"[1]": {"system": "RPMI-8226 leukemia"}, "[2]": {"system": "HCT-15 colon"}, "[3]": {"system": "SK-MEL-5 melanoma"}, "[4]": {"system": "OVCAR-3 ovarian"}, "[5]": {"system": "MOLT-4 leukemia"}, "[6]": {"system": "SK-MEL-28 melanoma"}, "[7]": {"system": "HL-60(TB) leukemia"}, "[8]": {"system": "SR leukemia"}, "[9]": {"system": "ACHN renal"}, "[10]": {"system": "OVCAR-5 ovarian"}, "[11]": {"system": "OVCAR-4 ovarian"}, "[12]": {"system": "T-47D breast"}, "[13]": {"system": "HT29 colon"}, "[14]": {"system": "DU-145 prostate"}, "[15]": {"system": "BT-549 breast"}, "[16]": {"system": "CAKI-1 renal"}, "[17]": {"system": "EKVX NSCLC"}, "[18]": {"system": "SNB-75 CNS"}, "[19]": {"system": "NCI/ADR-RES ovarian"}, "[20]": {"system": "CCRF-CEM leukemia"}, "[21]": {"system": "K-562 leukemia"}, "[22]": {"system": "SF-539 CNS"}, "[23]": {"system": "HOP-62 NSCLC"}, "[24]": {"system": "UO-31 renal"}, "[25]": {"system": "SK-OV-3 ovarian"}, "[26]": {"system": "MDA-MB-231 breast"}, "[27]": {"system": "SW-620 colon"}, "[28]": {"system": "UACC-257 melanoma"}, "[29]": {"system": "A498 renal"}, "[30]": {"system": "A549 NSCLC"}, "[31]": {"system": "NCI-H23 lung"}, "[32]": {"system": "MDA-MB-435"}, "[33]": {"system": "IGROV1 ovarian"}, "[34]": {"system": "TK-10 renal"}, "[35]": {"system": "OVCAR-8 ovarian"}, "[36]": {"system": "PC-3 prostate"}, "[37]": {"system": "NCI-H226 lung"}, "[38]": {"system": "SN12C renal"}}, "note": "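Step 1: Grow cells in 96-well plates. Step 2: Expose to compound for 48 hours at 5 concentrations. Step 3: Interpolate endpoints linearly; if unreached, use highest concentration. At the GI50, growth is halved. TGI denotes the concentration required for complete inhibition of growth.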"}
{"compound": "COc1cc2nc(Cl)nc(Nc3cccc(C4=Nc5c(N)nc(N)nc5NC(c5ccc(Cl)cc5)C4)c3)c2cc1OC", "note": "(stereo unspecified)", "values": [{"measurement": "GI50", "setting": "[1]", "value": 1.97, "unit": "µM"}, {"measurement": "TGI", "setting": "[1]", "value": 4.84, "unit": "µM"}, {"measurement": "GI50", "setting": "[2]", "value": 2.07, "unit": "µM"}, {"measurement": "TGI", "setting": "[2]", "value": 4.8, "unit": "µM"}, {"measurement": "GI50", "setting": "[3]", "value": 1.68, "unit": "µM"}, {"measurement": "TGI", "setting": "[3]", "value": 3.08, "unit": "µM"}, {"measurement": "GI50", "setting": "[4]", "value": 2.04, "unit": "µM"}, {"measurement": "TGI", "setting": "[4]", "value": 4.2, "unit": "µM"}, {"measurement": "GI50", "setting": "[5]", "value": 1.75, "unit": "µM"}, {"measurement": "TGI", "setting": "[5]", "value": 5.1, "unit": "µM"}, {"measurement": "GI50", "setting": "[6]", "value": 1.66, "unit": "µM"}, {"measurement": "TGI", "setting": "[6]", "value": 3.1, "unit": "µM"}, {"measurement": "GI50", "setting": "[7]", "value": 1.79, "unit": "µM"}, {"measurement": "TGI", "setting": "[7]", "value": 4.18, "unit": "µM"}, {"measurement": "GI50", "setting": "[8]", "value": 1.91, "unit": "µM"}, {"measurement": "TGI", "setting": "[8]", "value": 5.33, "unit": "µM"}, {"measurement": "GI50", "setting": "[9]", "value": 2.15, "unit": "µM"}, {"measurement": "TGI", "setting": "[9]", "value": 4.87, "unit": "µM"}, {"measurement": "GI50", "setting": "[10]", "value": 2.12, "unit": "µM"}, {"measurement": "TGI", "setting": "[10]", "value": 5.25, "unit": "µM"}, {"measurement": "GI50", "setting": "[11]", "value": 2, "unit": "µM"}, {"measurement": "TGI", "setting": "[11]", "value": 4.81, "unit": "µM"}, {"measurement": "GI50", "setting": "[12]", "value": 2.02, "unit": "µM"}, {"measurement": "TGI", "setting": "[12]", "value": 4.61, "unit": "µM"}, {"measurement": "GI50", "setting": "[13]", "value": 2.05, "unit": "µM"}, {"measurement": "TGI", "setting": "[13]", "value": 4.53, "unit": "µM"}, {"measurement": "GI50", "setting": "[14]", "value": 2.07, "unit": "µM"}, {"measurement": "TGI", "setting": "[14]", "value": 4.84, "unit": "µM"}, {"measurement": "GI50", "setting": "[15]", "value": 7.93, "unit": "µM"}, {"measurement": "TGI", "setting": "[15]", "value": 38, "unit": "µM"}, {"measurement": "GI50", "setting": "[16]", "value": 1.99, "unit": "µM"}, {"measurement": "TGI", "setting": "[16]", "value": 4.49, "unit": "µM"}, {"measurement": "GI50", "setting": "[17]", "value": 2.44, "unit": "µM"}, {"measurement": "TGI", "setting": "[17]", "value": 9.17, "unit": "µM"}, {"measurement": "GI50", "setting": "[18]", "value": 2.39, "unit": "µM"}, {"measurement": "TGI", "setting": "[18]", "value": 14.3, "unit": "µM"}, {"measurement": "GI50", "setting": "[19]", "value": 4.16, "unit": "µM"}, {"measurement": "TGI", "setting": "[19]", "value": 92, "unit": "µM"}, {"measurement": "GI50", "setting": "[20]", "value": 1.59, "unit": "µM"}, {"measurement": "TGI", "setting": "[20]", "value": 5.3, "unit": "µM"}, {"measurement": "GI50", "setting": "[21]", "value": 1.91, "unit": "µM"}, {"measurement": "TGI", "setting": "[21]", "value": 4.16, "unit": "µM"}, {"measurement": "GI50", "setting": "[22]", "value": 1.72, "unit": "µM"}, {"measurement": "TGI", "setting": "[22]", "value": 3.13, "unit": "µM"}, {"measurement": "GI50", "setting": "[23]", "value": 5.24, "unit": "µM"}, {"measurement": "TGI", "setting": "[23]", "value": 32.5, "unit": "µM"}, {"measurement": "GI50", "setting": "[24]", "value": 2.48, "unit": "µM"}, {"measurement": "TGI", "setting": "[24]", "value": 8.89, "unit": "µM"}, {"measurement": "GI50", "setting": "[25]", "value": 21.8, "unit": "µM"}, {"measurement": "TGI", "setting": "[25]", "value": 48, "unit": "µM"}, {"measurement": "GI50", "setting": "[26]", "value": 1.63, "unit": "µM"}, {"measurement": "TGI", "setting": "[26]", "value": 3.29, "unit": "µM"}, {"measurement": "GI50", "setting": "[27]", "value": 1.85, "unit": "µM"}, {"measurement": "TGI", "setting": "[27]", "value": 3.79, "unit": "µM"}, {"measurement": "GI50", "setting": "[28]", "value": 2.43, "unit": "µM"}, {"measurement": "TGI", "setting": "[28]", "value": 6.22, "unit": "µM"}, {"measurement": "GI50", "setting": "[29]", "value": 10.5, "unit": "µM"}, {"measurement": "TGI", "setting": "[29]", "value": 26.9, "unit": "µM"}, {"measurement": "GI50", "setting": "[30]", "value": 3.14, "unit": "µM"}, {"measurement": "TGI", "setting": "[30]", "value": 16.1, "unit": "µM"}, {"measurement": "GI50", "setting": "[31]", "value": 2.69, "unit": "µM"}, {"measurement": "TGI", "setting": "[31]", "value": 8.4, "unit": "µM"}, {"measurement": "GI50", "setting": "[32]", "value": 1.64, "unit": "µM"}, {"measurement": "TGI", "setting": "[32]", "value": 3.07, "unit": "µM"}, {"measurement": "GI50", "setting": "[33]", "value": 2.9, "unit": "µM"}, {"measurement": "TGI", "setting": "[33]", "value": 10.9, "unit": "µM"}, {"measurement": "GI50", "setting": "[34]", "value": 2.62, "unit": "µM"}, {"measurement": "TGI", "setting": "[34]", "value": 6.87, "unit": "µM"}, {"measurement": "GI50", "setting": "[35]", "value": 2.35, "unit": "µM"}, {"measurement": "TGI", "setting": "[35]", "value": 5.99, "unit": "µM"}, {"measurement": "GI50", "setting": "[36]", "value": 3.97, "unit": "µM"}, {"measurement": "TGI", "setting": "[36]", "value": 37.9, "unit": "µM"}, {"measurement": "GI50", "setting": "[37]", "value": 14.9, "unit": "µM"}, {"measurement": "TGI", "setting": "[37]", "value": 50.1, "unit": "µM"}, {"measurement": "GI50", "setting": "[38]", "value": 2.68, "unit": "µM"}, {"measurement": "TGI", "setting": "[38]", "value": 8.1, "unit": "µM"}]}
